The values below come from PubChem BioAssay (NCI).

Holding throughout (experiment): DTP human tumour cell line panel, 48 h
Assay [1] concerns HCT-15 colon.
Assay [2] relates to MOLT-4 leukemia.
Assay [3] concerns HCT-116 colon.
Assay [4] relates to DU-145 prostate.
Assay [5] deals with SW-620 colon.
The subject of assay [6] is 786-0 renal.
In assay [7] the test system is TK-10 renal.
Assay [8] deals with SK-MEL-28 melanoma.
The test system of assay [9] is SF-268 CNS.
Assay [10] has as its system SF-295 CNS.
The test system of assay [11] is RXF 393 renal.

SMILES strings stand for the structures.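 Results reflect a 48-hour exposure of cells in 96-well plates to compound at five concentrations. GI50 = concentration required for 50% inhibition of growth. TGI marks complete inhibition of growth.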

Turning to `O=c1[nH]c(Nc2nc3ccccc3[nH]2)nc(O)c1Cc1ccccc1`, the TGI in assay [1], in [2], in [3], in assay [4], in assay [5] and in assay [6] was > 100 µM in each case. Moreover, the TGI in assay [7], in assay [8] and in assay [9] was > 100 µM throughout.
On to `COc1cc(O)c2c(=O)c(OC)c(-c3ccc(OC)c(OC)c3)oc2c1`, for which the TGI in [1], in assay [3], in assay [4], in [5], in assay [7] and in assay [10] was > 100 µM in each case. Besides, the TGI – broadly, the concentration at which net growth stops – in assay [8] was 51.6 µM; in assay [9], > 100 µM. The GI50 (as a rule, the concentration at which growth is held to half of that of the control) in [3] is 68.7 µM; in assay [4] it was > 100 µM; in [10], > 100 µM; in [8], 18 µM; in assay [9], > 100 µM.
In the case of `CN(C)CCNC(=O)c1cccc2c(NC(CCC(N)=O)C(=O)O)c3ccccc3nc12` (stereo not drawn), the TGI in assay [1] is 22.5 µM; in assay [2], 71.3 µM; in assay [3], > 100 µM; in assay [4], > 100 µM; in assay [5] it was > 100 µM; in assay [6], > 100 µM. For the same compound, the TGI in assay [7] is > 100 µM; in assay [10], 25.5 µM; in [8], 38.1 µM; in [9] it was 28.3 µM.
As to `OC(c1cccnc1Cl)c1nc2ccccc2c2ccnc(Cl)c12` (stereo not drawn), the TGI in assay [1], in assay [2], in assay [3], in [4], in assay [5] and in assay [7] was > 100 µM throughout. Besides, the TGI was 9.75 µM in [10], 35.4 µM in assay [11], > 100 µM in assay [8] and > 100 µM in assay [9].
On to `O=C1CCCC/C1=C\c1ccc(Cl)c(Cl)c1`, for which the TGI amounted to 39.3 µM in assay [1]; 43.8 µM in assay [2]; 31.9 µM in assay [3]; 50.7 µM in assay [5]; 34.4 µM in assay [7]; 37.7 µM in assay [8]. The compound also showed a total growth inhibition concentration (TGI) in assay [9] of 59.4 µM.
Turning to `C=C1CC[C@@H](C)[C@](C)(CCc2ccoc2)C/C=C\C=C/1C(=O)O`, the TGI in assay [1] is > 100 µM; in assay [2] it was 95.8 µM; in assay [3], 54.6 µM; in assay [5], > 100 µM; in assay [6] it was > 100 µM; in assay [7], > 100 µM. Moreover, the TGI was > 100 µM in [10], 90.8 µM in [11] and 48.6 µM in assay [8].
As to `COc1cc(Oc2nc3ccc(C(F)(F)F)cc3nc2-c2ccccc2)cc(OC)c1OC`, the TGI was > 100 µM in [1]; 31.4 µM in [3]; > 100 µM in assay [4]; 12.7 µM in assay [6]; 69.2 µM in [7]; 28.2 µM in [10]. Moreover, the TGI in assay [11] was 45.7 µM; in [8], > 100 µM; in assay [9], 95.2 µM.
Take `COC(=O)Cc1c(-c2c(CC(=O)OC)c3ccccc3n2C2OC(COC(C)=O)C(OC(C)=O)C(OC(C)=O)C2OC(C)=O)[nH]c2ccccc12` (stereo not drawn): the TGI in assay [1], in assay [2], in assay [3], in assay [4], in [5] and in assay [7] was > 100 µM each time. Also, the concentration for total growth inhibition (TGI) in assay [10], in assay [8] and in assay [9] was > 100 µM in each case.
With `CO/N=C1/c2sccc2[C@H](NC(=O)C(Cc2ccccc2)NC(=O)OC(C)(C)C)[C@@H]1O` (stereo partly drawn), the TGI in [1], in assay [2], in assay [3], in assay [4], in [5] and in assay [7] was > 100 µM in each case. The TGI in assay [10], in [11], in [8] and in [9] was > 100 µM throughout.
Consider `COc1cc(Nc2nc3cc(C(F)(F)F)ccc3n3cccc23)cc(OC)c1OC`, for which the TGI in assay [1], in assay [2], in [3], in assay [4], in assay [5] and in [7] was > 100 µM throughout. For the same compound, the TGI in assay [10], in [11], in assay [8] and in assay [9] was > 100 µM in each case.
Consider `O=C1Cc2c([nH]c3ccc(C(=O)O)cc23)-c2ccccc2N1`, for which the TGI in assay [1], in assay [2], in assay [3], in [4], in [5] and in [6] was > 100 µM each time. The TGI in [7], in assay [10], in assay [8] and in assay [9] was > 100 µM each time.
For the compound `COc1ccc(CNc2cc(=O)n(C)c(=O)[nH]2)cc1`, the TGI in assay [1], in assay [2], in assay [3], in assay [5], in [6] and in [7] was > 100 µM throughout. Also, the TGI in assay [10], in assay [11], in [8] and in assay [9] was > 100 µM in each case.
Turning to `COc1cccc(/N=N/C(=NNC(=O)c2ccc(C)cc2)c2ccc(N(C)C)cc2)c1`, the TGI in assay [1], in assay [2], in assay [3], in [4], in assay [5] and in assay [6] was > 100 µM throughout. Moreover, the TGI in [7], in assay [10], in [8] and in assay [9] was > 100 µM each time.
For `CC[C@@]1(O)C(=O)OCc2c1cc1n(c2=O)Cc2c-1nc1ccccc1c2/C=N\NC(=O)C(N)CCSC` (stereo partly drawn), the TGI in assay [1] was > 90.3 µM; in assay [3], 1.58 µM; in assay [4], > 100 µM; in [5], > 41.1 µM; in [6], 1.92 µM; in [7], > 100 µM. Besides, the values for the total growth inhibition concentration (TGI) in assay [10], in [8] and in assay [9] were 0.315 µM, > 100 µM and 1.55 µM, respectively.
In the case of `COc1ccc(Nc2ccc([N+](=O)[O-])cc2[N+](=O)[O-])cc1CN(CCCl)CCCl`, the GI50 in [1] was 2.48 µM; in assay [2], 0.39 µM; in assay [3], 1.16 µM; in [4] it was 3.1 µM; in assay [5], 2.11 µM; in assay [7], 3.76 µM. Also, the GI50 in assay [10] is 2.79 µM; in assay [8] it was 3.24 µM; in [9], 2.44 µM. Further, the TGI in assay [1] stood at 9.93 µM; in [2], 9.94 µM; in assay [3], 3.75 µM; in assay [4], 10.5 µM; in assay [5] it was 13.4 µM; in assay [7] it was 95.3 µM. Further, the figures for the TGI in [10], in [8] and in [9] were 19.7 µM, 18.4 µM and 16.8 µM, respectively.
With `COC(=O)C1CCC(=O)N1C(c1ccc2c(c1)OCO2)c1cc(OC)c(OC)c(OC)c1` (stereo not drawn), the total growth inhibition concentration (TGI) in assay [1], in assay [2], in [3], in assay [4], in assay [5] and in assay [6] was > 100 µM each time. Also, the TGI in assay [7], in assay [10], in assay [8] and in assay [9] was > 100 µM in each case.
`O=C(c1ccccc1)c1c(CC(O)c2ccncc2)n(C(=O)c2ccccc2)c2ccccc12` (stereo not drawn): the TGI was determined as 38.7 µM in [1]; 42.1 µM in [2]; 29.2 µM in assay [3]; 39.2 µM in [5]; 39.1 µM in assay [6]; 75.2 µM in assay [7]. The results for the TGI in assay [10], in [8] and in assay [9] were 26 µM, 32.4 µM and 49.3 µM, respectively.
`O=C1c2ccccc2N2OC3(N4CCCC4)CCCCC3C12c1ccccc1` (stereo not drawn): the TGI in assay [1] is > 100 µM; in assay [2], > 100 µM; in [3] it was 27.6 µM; in assay [5], 31.5 µM; in [6], 31.6 µM; in assay [10] it was 32.7 µM. Moreover, the TGI in assay [11] is 39.4 µM; in assay [8] it was 76.2 µM; in [9], 33.7 µM.
`COc1ccc(C2=NOC(N)(c3ccc(OC)cc3)C2)cc1` (stereo not drawn): the TGI in assay [1], in assay [2], in assay [3], in assay [4], in assay [5] and in [6] was > 100 µM throughout. Further, the TGI in assay [7], in assay [10] and in [8] was > 100 µM each time.
For the compound `O=C(c1ccco1)N(C(=O)N1CCN(c2ccccc2)CC1)S(=O)(=O)c1ccccc1`, the TGI was > 100 µM in [1]; 49.1 µM in assay [2]; 44 µM in assay [3]; > 100 µM in assay [4]; > 100 µM in assay [5]; > 100 µM in [6]. The TGI in assay [7], in assay [10], in assay [8] and in assay [9] was > 100 µM in each case.
`COC(=O)C(=O)Cc1nc2ccccc2o1`: the TGI in [1], in assay [2], in assay [3], in assay [7], in assay [11] and in [8] was > 100 µM each time. Besides, in [9], the TGI is > 100 µM.
Turning to `CCCn1c(=O)c(N2CCN(c3ccccc3)CC2)nc2sc3ccccc3c21`, the TGI in [1], in assay [2], in assay [3], in [4], in assay [5] and in assay [6] was > 100 µM each time. Further, the TGI in assay [7], in assay [10], in [8] and in [9] was > 100 µM in each case.
For the compound `CCCCCCCCCCCC[N+](CCCCCCCCCCCC)=C1SCCS1`, the TGI worked out at 22.9 µM in assay [1]; 16.6 µM in [2]; 10.9 µM in [3]; 10.1 µM in assay [5]; 11.8 µM in assay [6]; 28.8 µM in [7]. Also, the TGI turned out to be 11.6 µM in assay [10], 14.8 µM in assay [11], 22.9 µM in [8] and 21.5 µM in [9].
As for `CC(C)(CCC(C)(C)N1OC1c1ccccc1)N1OC1c1ccccc1` (stereo not drawn), the TGI in [1], in [3], in [4], in [5], in assay [6] and in assay [7] was > 100 µM each time. Also, the TGI in assay [10], in assay [8] and in assay [9] was > 100 µM each time.
`Nc1ccc(Nc2cc(=O)[nH]c(=O)[nH]2)cc1Cl`: the TGI in [1], in [2], in assay [3], in [4], in assay [5] and in assay [6] was > 100 µM each time. For the same compound, the total growth inhibition concentration (TGI) in [7], in assay [10], in assay [8] and in [9] was > 100 µM in each case.
For `O=C1NC2CCCCCC2C12CCCCC2` (stereo not drawn), the TGI in assay [1], in assay [2], in [3], in assay [5], in assay [7] and in assay [10] was > 100 µM each time. Further, the TGI in [11], in [8] and in assay [9] was > 100 µM throughout.
Consider `CCOC(=O)c1c[nH]c2ccc3c(c2c1=O)S(=O)(=O)CC3` (tested in a mixture with another compound), for which the TGI in assay [1], in assay [2], in assay [3], in [5], in assay [10] and in assay [11] was > 100 µM in each case. Further, the TGI in [8] and in [9] was > 100 µM in each case.
